Data on one molecule can be found in patent US4960770A, “2-alkyl thieno(triazolo)diazepine compounds and pharmaceutical uses thereof” (Yoshitomi Pharmaceutical Industries, Ltd., priority 1987, dated 1990).

The target in assay [1] is T1, calmodulin (bovine encephalon) (Bos taurus, UniProt P62157).
T1 construct: calmodulin (bovine encephalon); from tissue; host or cells: bovine encephalon (brain)
As to the kind of experiment: Calmodulin inhibitory action (NPN fluorescence probe method). It is filed as biochemical. As to the method:
Calmodulin inhibitory action was measured according to the modified method of Epstein et al. described in Biochemical and Biophysical Research Communications, Vol. 105, p. 1142 (1982). Briefly, to 25 mM Tris-HCl buffer solution (pH 7.0) were added as a final concentration 1 mM calcium chloride, 5 μM N-phenyl-1-naphthylamine (NPN), 1000 units of calmodulin (bovine encephalon) and each of test compound to give 3 ml of final solution volume. The solution was allowed to stand at room temperature for 1 hour and the fluorescence intensity was measured by a fluorescene photometer (ex. 350 nm, em. 440 nm). A blank was prepared by adding water instead of calmodulin. Each of test compound was dissolved in dimethyl sulfoxide or 2.5% dimethyl sulfoxide solution and the final concentration of dimethyl sulfoxide was adjusted to 0.25%.

Assay [2] has as its system PAF-induced lethal shock. As to the kind of experiment: Effect of PAF-induced lethal shock in mice. The assay is classed as in vivo, male ICR mice. Particulars: 1 hour before PAF 80 μg/kg i.v., 24 hours. As to the method:
The experiment was carried out according to the method of Young et al. described in Prostaglandins, vol. 30, p. […] Groups of 9 to 15 male ICR mice (Charles River) weighing 25-30 g were used. 80 μg/kg of PAF (Serdary Research Labo.) solution was intravenously administered in a lateral tail vein 1 hour after the oral administration of test compound (0.1 ml/10 g). […] Results were given as number of survivors/number of employed animals and survival rates (%) in Table 4.

Assay [3] deals with coronary artery blood flow. In words: Effect on coronary flow (coronary artery blood flow in anesthetized dogs). Particulars: relative to flow increase at 3 μg nifedipine. The assay is classed as in vivo, mongrel dogs. As to the method: Adult mongrel dogs were anesthetized with sodium pentobarbital (30 mg/kg, i.v.). According to the method of Yago et al described in Folia Pharmacologica Japonica, vol. 57, p. 380 (1961), the left coronary artery was perfused and its blood flow was measured. Test compound was injected into the coronary artery at a volume of 10-30 μl. To determine the effect of the test compound on coronary artery blood flow, an increase percentage of blood flow at each dosage was calculated based on the increase of the blood flow at a dosage of 3 μg of nifedipine.

Structures are written as SMILES.

The term IC50 denotes the concentration that gives 50% inhibition.

As to `CCCCCCc1cc2c(s1)-n1c(C)nnc1C(C)N=C2c1ccccc1Cl` (centres unmarked) [Example 74, 4-(2-chlorophenyl)-2-hexyl-6,9-dimethyl-6H-thieno[3,2-f][1,2,4]triazolo[4,3-a][1,4]diazepine], 1200 nM corresponded to half-maximal inhibition in assay [1] (IC50). In addition, the entries for the “Number of Survivors/Number of Animals” value in assay [2] (0.1 mg/kg p.o.) and in assay [2] (1 mg/kg p.o.) were 5/6 and 7/7, respectively. For the same molecule, the Survival rate in assay [2] (0.1 mg/kg p.o.) is listed as 83.3%; in assay [2] (1 mg/kg p.o.), 100%. The results for the “Effect on coronary blood flow” value in assay [3] (dosage 30 μg into coronary artery), in assay [3] (dosage 100 μg into coronary artery) and in assay [3] (dosage 300 μg into coronary artery) were 16%, 57% and 86%, respectively.
